Series [1] relates to electron transfer system of sub-mitochondrial particles. It is filed as biochemical. To be noted: for cathode peak current at 1.019 V relative to a sample of 0 wt %: 2.5 wt %, FIG. 4 / FIG. 5. An excerpt:
FIGS. 1A is a diagram of an exemplary embodiment of a current measuring device; and FIG. 1B is a schematic diagram of an exemplary embodiment of a current measuring apparatus. Referring to FIG. 1A, a reaction vessel 10 includes an Ag/AgCl standard electrode 20 (RE in FIG. 1B), a platinum working electrode 30 (WE in FIG. 1B), and a platinum counter electrode 40 (CE in FIG. 1B). The standard electrode 20, the working electrode 30, and the counter electrode 40 are connected to a voltmeter 50 (e.g., a Perkin-Elmer VMP multichannel potentiostat; V in FIG. 1B). An X/Y plotter 60 is connected to the voltmeter 50. 0.5× PBS including 0.5 mg/ml of SMP (submitochondrial particle) (Havard Bioscience), 6 mM of NADH, and 50 mM of KCl was allowed to react at ambient temperature for 1 hour. […] The cyclic voltammogram was measured with a scan speed of 50 mV/sec CV at a sweep range of 0.85 to 1.35 V. […] FIG. 3 is a graph showing the cyclic voltammogram of 2.5 mM Ru(bpy)3^2+ in phosphate-buffered saline (PBS). Then, ethanol samples having final concentrations (on a weight basis) of 0 wt %, 2.5 wt %, 5 wt %, and 10 wt %, or a sample having 2.5 wt % of sorbitol was added to 0.5× PBS including 0.5 mg/ml of SMP, (submitochondrial particle), 6 mM of NADH, and 50 mM of KCl to prepare 7 ml of a final reaction solution and was allowed to react for 1 hour at ambient temperature. Next, absorbance of the final reaction solution was measured at 340 nanometers (nm) using a spectrophotometer and the concentration of NADH was measured using an optical method. […] The cyclic voltammogram was measured with a scan speed of 50 mV/sec CV at a sweep range of 0.85 to 1.35V.

For series [2] the test system is unchanged. The series can be described thus: Optical method: NADH concentration by absorbance at 340 nm of SMP/NADH reaction solution. It is filed as biochemical. The note with it: 2.5 wt %. As to the method: Then, ethanol samples having final concentrations (on a weight basis) of 0 wt %, 2.5 wt %, 5 wt %, and 10 wt %, or a sample having 2.5 wt % of sorbitol was added to 0.5× PBS including 0.5 mg/ml of SMP, (submitochondrial particle), 6 mM of NADH, and 50 mM of KCl to prepare 7 ml of a final reaction solution and was allowed to react for 1 hour at ambient temperature. Next, absorbance of the final reaction solution was measured at 340 nanometers (nm) using a spectrophotometer and the concentration of NADH was measured using an optical method. […] The cyclic voltammogram was measured with a scan speed of 50 mV/sec CV at a sweep range of 0.85 to 1.35V.

Setting [3] is: 0.5 mg/ml SMP, 6 mM NADH, 1 hour at ambient temperature.

`CCO` [ethanol]: the “effect on electron transfer reaction of sub-mitochondrial particles (toxicity)” value in series [1] is given as “obstructs the electron transfer reaction of sub-mitochondrial particles”. Also, the “cathode peak current at 1.019 V in a cyclic voltammogram as concentration increases” value in series [1] (0, 2.5, 5 and 10 wt %, 0.5 mg/ml SMP, 6 mM NADH, 1 hour at ambient temperature, FIG. 4) is reported as “moves towards in less negative (i.e., more positive, cathodic) direction”. Also, the “cathode peak current at 1.019 V relative to a sample of 0 wt %” value in series [1] (setting [3]) is “moves toward a less negative value”.

As to `OC[C@@H](O)[C@@H](O)[C@H](O)[C@@H](O)CO` [sorbitol], the “effect on electron transfer reaction of sub-mitochondrial particles (toxicity)” value in series [1] is given as “does not include toxic material”. In addition, in series [1] (setting [3]), the “cathode peak current at 1.019 V relative to a sample of 0 wt %” value is reported as “moves towards a more negative value”. Further, the “toxicity by optical measurement” value in series [2] (conclusion from absorbance at 340 nm) was “no toxicity”. In addition, in series [2] (spectrophotometer, data not illustrated), the “absorbance at 340 nm compared to a sample of 0 wt %” value is on record as “no changes”.

The values above are taken from US20070148723A1, “METHOD AND APPARATUS FOR DETECTING PRESENCE OF TOXIC MATERIAL WITHIN SAMPLE” (SAMSUNG ELECTRONICS CO., LTD., priority 2005, published 2007).
